US7541367B2, “3-benzoimidazolyl-pyrazolopyridines useful in treating kinase disorders” (Janssen Pharmaceutica, N.V., priority 2005, dated 2009)

Columns and labels:
CDK1 = target: T1, CDK1 (Homo sapiens, UniProt P06493); assay: CDK-1 kinase screening assay (33P-ATP FlashPlate); format: biochemical; details: human CDK1 with cyclin B; 10 μM ATP; 1 hr at 30° C
T1 construct: purchased New England Biolabs, Beverly, Mass; 6020; host or cells: insect cells

Aurora-A = target: T2, Aurora-A (Mus musculus, UniProt P97477); assay: Aurora-A kinase screening assay (33P-ATP FlashPlate); format: biochemical; details: 10 μM ATP, 1 hr at 30° C;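 further: His-tagged mouse Aurora-A phosphorylating a biotinylated peptide captured on streptavidin plates, read as 33P uptake by scintillation counting, 1% DMSO, inhibition scaled between per-plate maximum and minimum signals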
T2 construct: polyhistidine (N)
T2 sequence (P97477 1-395): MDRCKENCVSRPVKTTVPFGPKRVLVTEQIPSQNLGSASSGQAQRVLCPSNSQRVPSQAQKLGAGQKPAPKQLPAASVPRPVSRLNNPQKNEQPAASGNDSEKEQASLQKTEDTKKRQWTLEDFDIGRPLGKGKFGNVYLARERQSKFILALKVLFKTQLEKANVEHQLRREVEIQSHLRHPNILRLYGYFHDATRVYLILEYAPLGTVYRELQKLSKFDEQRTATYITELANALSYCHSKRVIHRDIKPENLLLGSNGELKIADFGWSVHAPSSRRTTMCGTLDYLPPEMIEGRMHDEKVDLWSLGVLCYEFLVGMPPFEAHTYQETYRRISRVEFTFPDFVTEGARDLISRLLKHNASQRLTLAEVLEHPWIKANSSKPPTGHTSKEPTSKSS

[1] = system: Human melanoma A375 cells; assay: In Vivo Models - Inhibition of Tumor Growth (A375 xenograft); details: female athymic mice, 25 mg/kg i.p. daily
Experimental: The ability of test compounds to inhibit unregulated growth of human tumor cells in vivo was evaluated by implanting human tumor cells into the hindflank of athymic mice, administering a test compound and then quantifying any change in tumor size.
Certain compounds at particular doses produced adverse effects in this model. One skilled in the art would be able to establish the effective amount of compound required to achieve an effective therapeutic window.
Human melanoma A375 cells were implanted subcutaneously into the hindflank of female athymic mice (Charles River) and allowed to grow for 6-10 days. After a measurable tumor was established (as determined by baseline caliper measurement), the animal was administered an intraperitoneal (i.p.) dose of the test compound daily at 25 mg/kg for the length of the study. Tumor size was measured at certain intervals as shown in Table 5 and the degree of inhibition for a test compound was determined by comparing the reduction in tumor volume for drug-treated animals to that of untreated and vehicle-treated animals. The vehicle used was 20% hydroxypropyl β-cyclodextran.

VEGF-R2 = target: T3, VEGF-R2 (Rattus norvegicus, UniProt O08775); assay: VEGF-R2 kinase screening assay (33P-ATP FlashPlate); format: biochemical; details: rat VEGF-R2 kinase domain; 10 μM ATP; 1 hr at 30° C;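 further: Read-out is ³³P incorporation from ³³P-γ-ATP into biotinylated peptide substrate captured on streptavidin FlashPlate, counted by scintillation, 1% DMSO final, inhibition scaled between per-plate maximum and minimum signals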
T3 construct: polyhistidine (N)
T3 sequence (O08775 786-1343): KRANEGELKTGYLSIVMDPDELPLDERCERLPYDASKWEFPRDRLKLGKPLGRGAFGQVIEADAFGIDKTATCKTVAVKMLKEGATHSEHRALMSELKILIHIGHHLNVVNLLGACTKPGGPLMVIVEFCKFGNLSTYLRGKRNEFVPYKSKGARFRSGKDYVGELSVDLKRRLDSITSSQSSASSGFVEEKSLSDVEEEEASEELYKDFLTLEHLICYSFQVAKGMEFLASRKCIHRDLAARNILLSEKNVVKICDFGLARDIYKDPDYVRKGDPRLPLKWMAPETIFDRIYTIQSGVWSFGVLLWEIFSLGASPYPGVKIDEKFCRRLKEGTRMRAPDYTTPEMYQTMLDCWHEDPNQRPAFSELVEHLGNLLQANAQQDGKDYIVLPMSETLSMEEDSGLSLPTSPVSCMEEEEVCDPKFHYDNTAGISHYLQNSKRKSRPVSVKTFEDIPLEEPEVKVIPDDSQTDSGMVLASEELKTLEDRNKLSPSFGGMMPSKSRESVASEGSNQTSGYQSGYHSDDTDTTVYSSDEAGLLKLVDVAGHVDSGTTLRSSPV

HER2 = target: T4, HER2 (Homo sapiens, UniProt P04626); assay: HER2 kinase screening assay (33P-ATP FlashPlate); format: biochemical; details: GST-HIS6 HER-2 aa 679 to 1255; 10 μM ATP; 1 hr at 30° C;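 further: Biotin-poly(GT) 4:1 peptide captured on streptavidin FlashPlate, 33P transfer from γ-ATP read by scintillation counting, lower incorporation means inhibition, 1% DMSO final, 100 µL reaction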
T4 construct: GST (Glutathione-S-Transferase) (N); HIS6 (N); thrombin cleavage site (N); purchased Proqinase, Freiburg, Germany
T4 sequence (P04626 679-1255): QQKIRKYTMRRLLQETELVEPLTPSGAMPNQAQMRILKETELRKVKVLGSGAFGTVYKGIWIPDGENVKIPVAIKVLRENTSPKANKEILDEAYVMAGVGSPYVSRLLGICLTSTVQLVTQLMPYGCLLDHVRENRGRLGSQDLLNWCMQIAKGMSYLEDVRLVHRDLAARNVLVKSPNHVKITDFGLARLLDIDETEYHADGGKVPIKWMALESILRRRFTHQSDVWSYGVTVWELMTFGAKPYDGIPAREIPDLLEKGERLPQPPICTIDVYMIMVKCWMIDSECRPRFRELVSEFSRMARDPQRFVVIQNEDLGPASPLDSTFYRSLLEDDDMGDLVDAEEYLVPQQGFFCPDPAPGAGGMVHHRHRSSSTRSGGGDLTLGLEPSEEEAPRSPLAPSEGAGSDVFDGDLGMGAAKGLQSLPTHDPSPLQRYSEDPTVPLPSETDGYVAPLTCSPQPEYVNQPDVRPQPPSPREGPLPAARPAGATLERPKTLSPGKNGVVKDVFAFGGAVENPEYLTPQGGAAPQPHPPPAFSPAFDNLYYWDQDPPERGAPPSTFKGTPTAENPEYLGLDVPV

RET = target: T5, RET (Homo sapiens, UniProt P07949); assay: RET kinase screening assay (33P-ATP FlashPlate); format: biochemical; details: human RET kinase domain; 10 μM ATP; 1 hr at 30° C;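 further: biotinylated peptide substrate captured on streptavidin FlashPlate, 33P phosphate transfer read by scintillation counting, 1% DMSO, lower incorporation means inhibition, percent relative to per-plate maximum and minimum signals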
T5 construct: polyhistidine (N)
T5 sequence (P07949 658-1114 limits assumed): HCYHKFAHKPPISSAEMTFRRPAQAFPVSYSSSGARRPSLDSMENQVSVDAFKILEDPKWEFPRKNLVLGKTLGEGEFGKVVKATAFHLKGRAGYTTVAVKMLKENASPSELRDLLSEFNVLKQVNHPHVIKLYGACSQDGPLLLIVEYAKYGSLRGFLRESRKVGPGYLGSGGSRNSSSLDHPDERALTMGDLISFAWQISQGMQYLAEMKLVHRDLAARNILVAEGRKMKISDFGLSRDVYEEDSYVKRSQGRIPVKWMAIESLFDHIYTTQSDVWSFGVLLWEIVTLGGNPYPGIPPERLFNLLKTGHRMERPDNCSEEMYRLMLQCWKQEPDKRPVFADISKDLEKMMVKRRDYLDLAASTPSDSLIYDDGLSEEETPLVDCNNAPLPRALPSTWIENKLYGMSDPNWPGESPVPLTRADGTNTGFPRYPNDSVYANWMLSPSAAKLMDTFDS

c-Src kinase = target: T6, c-Src kinase (Homo sapiens, UniProt P12931); assay: c-Src Kinase Assay; format: biochemical; details: 5 μM ATP
T6 construct: purchased Upstate Biotechnology, Lake Placid, N.Y
T6 sequence (P12931 whole entry): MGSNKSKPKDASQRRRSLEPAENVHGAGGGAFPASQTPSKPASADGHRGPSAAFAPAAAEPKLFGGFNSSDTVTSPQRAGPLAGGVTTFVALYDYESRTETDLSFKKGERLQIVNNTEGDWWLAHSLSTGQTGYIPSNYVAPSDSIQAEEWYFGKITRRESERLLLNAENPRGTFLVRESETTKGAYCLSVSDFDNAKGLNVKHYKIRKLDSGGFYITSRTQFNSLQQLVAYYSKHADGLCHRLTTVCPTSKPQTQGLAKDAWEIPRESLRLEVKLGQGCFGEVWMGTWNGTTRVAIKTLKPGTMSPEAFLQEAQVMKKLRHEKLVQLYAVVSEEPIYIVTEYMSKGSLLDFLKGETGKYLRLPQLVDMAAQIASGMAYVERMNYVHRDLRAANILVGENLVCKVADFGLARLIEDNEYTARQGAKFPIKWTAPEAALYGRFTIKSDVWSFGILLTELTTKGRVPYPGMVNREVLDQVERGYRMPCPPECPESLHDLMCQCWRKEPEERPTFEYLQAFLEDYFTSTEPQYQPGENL
Method in brief: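 Human c-Src phosphorylated Cdc2 peptide (100 μM) […]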

Lyn kinase = target: T7, Lyn kinase (Homo sapiens, UniProt P07948); assay: Lyn Kinase Assay; format: biochemical; details: 5 μM ATP
T7 construct: purchased Upstate Biotechnology, Lake Placid, N.Y
T7 sequence (P07948 whole entry): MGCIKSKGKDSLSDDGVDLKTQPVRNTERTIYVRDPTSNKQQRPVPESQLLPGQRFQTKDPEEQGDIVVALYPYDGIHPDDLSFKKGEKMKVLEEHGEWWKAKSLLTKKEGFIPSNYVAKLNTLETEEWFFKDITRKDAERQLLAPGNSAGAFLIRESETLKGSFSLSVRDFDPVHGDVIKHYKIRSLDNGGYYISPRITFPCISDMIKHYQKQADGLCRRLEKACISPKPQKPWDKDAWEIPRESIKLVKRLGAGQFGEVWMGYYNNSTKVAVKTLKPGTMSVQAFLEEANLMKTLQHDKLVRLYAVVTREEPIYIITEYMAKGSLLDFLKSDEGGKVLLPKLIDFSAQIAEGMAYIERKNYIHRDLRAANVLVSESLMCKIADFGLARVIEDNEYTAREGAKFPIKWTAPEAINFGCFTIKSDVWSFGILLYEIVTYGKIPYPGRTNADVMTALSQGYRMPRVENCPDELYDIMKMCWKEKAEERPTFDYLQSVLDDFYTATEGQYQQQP
Method in brief: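 Recombinant human Lyn kinase in pH 7.5 Tris buffer with EGTA, vanadate, β-mercaptoethanol and BSA reacted with compound for 40 min at 30° C. The radiolabelled product was captured on P30 filtermats after phosphoric acid stop and counted by scintillation. IC50 came from percent inhibition versus log concentration, using plate maximum/minimum signals.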

[2] = system: HeLa cervical adenocarcinoma; assay: Cell Proliferation Inhibition Assay (14C-thymidine incorporation), HeLa; format: cell-based; details: Homo sapiens, HeLa, HeLa cells;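 further: test compound in DMSO added to cells seeded in scintillating 96-well plates, DMSO-only wells as control, uptake of methyl 14C-thymidine into new DNA counted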
A375 malignant melanoma = assay: Cell Proliferation Inhibition Assay (14C-thymidine incorporation), A375; format: cell-based; details: Homo sapiens, A-375, A375 cells;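 further: proliferation measured by radiolabelled thymidine uptake into new DNA, counted in scintillating 96-well plates, compound-treated wells compared with DMSO-only control wells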
HCT-116 colon carcinoma = assay: Cell Proliferation Inhibition Assay (14C-thymidine incorporation), HCT-116; format: cell-based; details: Homo sapiens, HCT-116, HCT-116 cells;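 further: proliferation measured as methyl 14C-thymidine uptake into new DNA, counted in 96-well scintillating microplates, compared with DMSO-only control wells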

T1 sequence (P06493 whole entry): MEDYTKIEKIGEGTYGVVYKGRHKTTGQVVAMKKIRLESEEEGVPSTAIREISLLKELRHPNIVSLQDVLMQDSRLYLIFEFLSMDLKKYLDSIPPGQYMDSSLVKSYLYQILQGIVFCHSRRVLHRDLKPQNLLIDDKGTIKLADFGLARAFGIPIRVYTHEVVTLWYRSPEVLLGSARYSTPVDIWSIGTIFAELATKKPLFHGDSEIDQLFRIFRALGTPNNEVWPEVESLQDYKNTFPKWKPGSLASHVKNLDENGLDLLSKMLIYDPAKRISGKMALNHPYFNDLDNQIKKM
T1 sequence (P14635 whole entry partner): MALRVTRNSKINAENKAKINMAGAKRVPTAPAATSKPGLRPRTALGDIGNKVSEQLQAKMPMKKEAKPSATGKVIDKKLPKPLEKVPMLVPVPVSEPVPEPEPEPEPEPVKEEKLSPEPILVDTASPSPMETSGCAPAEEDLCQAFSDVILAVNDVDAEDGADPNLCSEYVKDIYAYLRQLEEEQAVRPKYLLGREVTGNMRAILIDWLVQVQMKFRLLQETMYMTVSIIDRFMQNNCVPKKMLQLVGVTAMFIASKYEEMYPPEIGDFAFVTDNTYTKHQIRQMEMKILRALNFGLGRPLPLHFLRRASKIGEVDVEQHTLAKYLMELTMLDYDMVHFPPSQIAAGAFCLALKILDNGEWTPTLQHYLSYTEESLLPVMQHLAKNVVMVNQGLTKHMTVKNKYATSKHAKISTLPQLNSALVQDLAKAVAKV

CCCNCc1cncc(-c2cnc3[nH]nc(-c4nc5c(COC)cccc5[nH]4)c3c2)c1 [Cpd 78, {5-[3-(4-methoxymethyl-1H-benzoimidazol-2-yl)-1H-pyrazolo[3,4-b]pyridin-5-yl]-pyridin-3-ylmethyl}-propyl-amine]
IC50 (CDK1): 7.4 nM | IC50 (Aurora-A): 3990 nM | Tumor volume ([1]; Day 1): 95.4 mm^3 | Tumor volume ([1]; Day 4): 113.6 mm^3 | Tumor volume ([1]; Day 8): 329.3 mm^3 | Tumor volume ([1]; Day 11): 558 mm^3 | Tumor volume ([1]; Day 14): 856.9 mm^3

COCc1cccc2[nH]c(-c3n[nH]c4ncc(-c5cncc(CNC6CCN(C)CC6)c5)cc34)nc12 [Cpd 80, {5-[3-(4-methoxymethyl-1H-benzoimidazol-2-yl)-1H-pyrazolo[3,4-b]pyridin-5-yl]-pyridin-3-ylmethyl}-(1-methyl-piperidin-4-yl)-amine]
IC50 (CDK1): 875 nM | IC50 (VEGF-R2): 2080 nM | IC50 (HER2): > 100000 nM | IC50 (Aurora-A): > 10000 nM | IC50 (RET): > 100000 nM | IC50 (c-Src kinase): 211 nM | IC50 (Lyn kinase): 192 nM | IC50 [2]: > 10000 nM | IC50 (A375 malignant melanoma): 397 nM | IC50 (HCT-116 colon carcinoma): 2310 nM

CCNCc1cncc(-c2cnc3[nH]nc(-c4nc5cc(N6CCN(C)CC6)ccc5[nH]4)c3c2)c1 [Cpd 82, ethyl-(5-{3-[5-(4-methyl-piperazin-1-yl)-1H-benzoimidazol-2-yl]-1H-pyrazolo[3,4-b]pyridin-5-yl}-pyridin-3-ylmethyl)-amine]
IC50 (CDK1): 3.05 nM | IC50 (VEGF-R2): 25 nM | IC50 (HER2): 1070 nM | IC50 (Aurora-A): 283 nM | IC50 (c-Src kinase): 712 nM | IC50 (Lyn kinase): 415 nM | IC50 [2]: 474 nM | IC50 (A375 malignant melanoma): 627 nM | IC50 (HCT-116 colon carcinoma): 543 nM | Tumor volume ([1]; Day 1): 97.7 mm^3 | Tumor volume ([1]; Day 4): 222 mm^3 | Tumor volume ([1]; Day 8): 455.5 mm^3 | Tumor volume ([1]; Day 11): 742.4 mm^3 | Tumor volume ([1]; Day 14): 1323.6 mm^3

CN1CCN(c2ccc3[nH]c(-c4n[nH]c5ncc(-c6cncc(CN7CCOCC7)c6)cc45)nc3c2)CC1 [Cpd 84, 3-[5-(4-methyl-piperazin-1-yl)-1H-benzoimidazol-2-yl]-5-(5-morpholin-4-ylmethyl-pyridin-3-yl)-1H-pyrazolo[3,4-b]pyridine]
IC50 (CDK1): 32.2 nM | IC50 (VEGF-R2): ~100 nM | IC50 (HER2): 1850 nM | IC50 (Aurora-A): 87.3 nM | IC50 (RET): > 1000 nM | IC50 (c-Src kinase): 5.18 nM | IC50 (Lyn kinase): 9.65 nM | IC50 [2]: 1880 nM | IC50 (A375 malignant melanoma): 2530 nM | IC50 (HCT-116 colon carcinoma): 739 nM

CCNCc1cncc(-c2cnc3[nH]nc(-c4nc5ccc(F)cc5[nH]4)c3c2)c1 [Cpd 106, ethyl-{5-[3-(6-fluoro-1H-benzoimidazol-2-yl)-1H-pyrazolo[3,4-b]pyridin-5-yl]-pyridin-3-ylmethyl}-amine]
IC50 (CDK1): 0.7 nM | IC50 (VEGF-R2): 154 nM | IC50 (HER2): 5120 nM | IC50 (Aurora-A): 803 nM | IC50 [2]: 58.6 nM | IC50 (A375 malignant melanoma): 51.2 nM | IC50 (HCT-116 colon carcinoma): 93.7 nM | Tumor volume ([1]; Day 1): 95.4 mm^3 | Tumor volume ([1]; Day 4): 94.7 mm^3 | Tumor volume ([1]; Day 8): 318.6 mm^3 | Tumor volume ([1]; Day 11): 558.3 mm^3 | Tumor volume ([1]; Day 14): 896.8 mm^3

CCNCc1cncc(-c2cnc3[nH]nc(-c4nc5cc(F)c(F)cc5[nH]4)c3c2)c1 [Cpd 107, {5-[3-(5,6-difluoro-1H-benzoimidazol-2-yl)-1H-pyrazolo[3,4-b]pyridin-5-yl]-pyridin-3-ylmethyl}-ethyl-amine]
IC50 (CDK1): 1.1 nM | IC50 (VEGF-R2): ~100 nM | IC50 (HER2): 3600 nM | IC50 (Aurora-A): > 1000 nM | IC50 [2]: 138 nM | IC50 (A375 malignant melanoma): 46.1 nM | IC50 (HCT-116 colon carcinoma): 94.7 nM | Tumor volume ([1]; Day 1): 95.4 mm^3
